In ChEMBL document CHEMBL1131315, “Synthesis and anticonvulsant activity of 2(3H)-benzoxazolone and 2(3H)-benzothiazolone derivatives” (J Med Chem, 1998):
Activity calls are given as the source filed them. The calls are words filed in the database; no cut-off is given here.

How the values were obtained:
Rattus norvegicus [1] = assay: The compound was tested peroral dose of 30 mg/kg for 1 hour for maximal electroshock test on rats; MES= 1/4; format: functional; conditions: route oral
Rattus norvegicus [2] = assay: The compound was tested peroral dose of 30 mg/kg for 1 hour for rotarod toxicity; 0/4; format: functional; conditions: route oral
Mus musculus [3] = assay: Inhibition of s.c. pentylenetetrazole induced seizure in mice following i.p. administration.; format: functional
Mus musculus [4] = assay: (§1) The compound was determined for the dose (mg/kg) by rotarod test at the time of peak neurotoxic effect in mice on ip administration.; format: functional
Mus musculus [5] = assay: Anticonvulsant activity in subcutaneous pentylenetetrazole seizure test for 30 min in mice; No activity/toxicity at 300 mg/kg.; format: functional, organism-based; design: dose 300 mg/kg
[6] = biological target: Sigma non-opioid intracellular receptor 1 (Homo sapiens) (UniProt Q99720); assay: Ratio between the Ki(nM)values of sigma-2 and sigma-1; format: functional
Sequence of Sigma non-opioid intracellular receptor 1 (Homo sapiens) (Q99720 whole entry): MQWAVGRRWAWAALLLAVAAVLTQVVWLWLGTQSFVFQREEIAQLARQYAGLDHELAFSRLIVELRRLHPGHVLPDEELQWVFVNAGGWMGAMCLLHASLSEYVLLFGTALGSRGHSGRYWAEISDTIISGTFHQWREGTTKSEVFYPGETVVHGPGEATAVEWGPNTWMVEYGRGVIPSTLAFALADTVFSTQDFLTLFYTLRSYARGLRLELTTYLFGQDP

Rattus norvegicus [7] = assay: (§2) The compound was tested for the toxic dose on oral administration.; format: functional
Rattus norvegicus [8] = assay: The compound was tested peroral dose of 30 mg/kg for 4 hours for rotarod toxicity; 0/4; format: functional; conditions: route oral
Mus musculus [9] = assay: The compound was tested for anticonvulsant activity in Maximal electroshock seizure test for 30 min in mice(ip); active at 30 mg/kg; format: functional, organism-based; design: dose 30 mg/kg
Rattus norvegicus [10] = species: Rattus norvegicus; assay: Protective index value is the ratio between ED50 and TD50; format: functional
Rattus norvegicus [11] = assay: The compound was tested peroral dose of 30 mg/kg for 4 hours for maximal electroshock test on rats; MES= 1/4; format: functional; conditions: route oral
Sigma 2 receptor = assay: Affinity on sigma 2 receptor using [3H]- DTG as radioligand
[12] = The compound was tested for neurologic toxicity (rotarod) test for 4 hours in mice; no activity or no toxicity at 300 mg/kg; format: organism-based; design: dose 300 mg/kg; conditions: mouse, in vivo
Mus musculus [13] = assay: The anticonvulsant activity in subcutaneous pentylenetetrazole seizure test (sc Met) for 4 hr in mice; no activity or no toxicity at 300 mg/kg; format: functional, organism-based; design: dose 300 mg/kg
Rattus norvegicus [14] = assay: The compound was tested peroral dose of 30 mg/kg for 0.5 hours for maximal electroshock test on rats; MES= 3/4; format: functional; conditions: route oral
Rattus norvegicus [15] = assay: The compound was tested peroral dose of 30 mg/kg for 2 hours for rotarod toxicity; 0/4; format: functional; conditions: route oral
Rattus norvegicus [16] = assay: The compound was tested peroral dose of 30 mg/kg for 0.25 hours for rotarod toxicity; 0/4; format: functional; conditions: route oral
[17] = The compound was tested for neurologic toxicity (rotarod) test for 30 min in mice; active at 300 mg/kg; format: organism-based; design: dose 300 mg/kg; conditions: mouse, in vivo, 0.5 h
Mus musculus [18] = assay: The compound was tested to inhibit 50% of induced maximal electroshock seizure in mice on ip administration.; format: functional
Rattus norvegicus [19] = assay: The compound was tested for the effective oral dose to inhibit 50% of the anticonvulsant in rats.(Value in parenthesis indicate 95% confidence limits); format: functional
Rattus norvegicus [20] = assay: The compound was tested peroral dose of 30 mg/kg for 2 hours for maximal electroshock test on rats; MES= 0/4; format: functional; conditions: route oral
[21] = The compound was tested for time of peak effect (TPE) in hours for its toxicity in mice on ip administration.; format: organism-based; conditions: mouse, in vivo
Mus musculus [22] = assay: Time of peak effect in mice following i.p. administration.; format: functional
Mus musculus [23] = assay: The compound was tested for anticonvulsant activity in Maximal electroshock seizure test (MES) for 4 hr in mice(ip); no activity or toxicity at 300 mg/kg; format: functional, organism-based; design: dose 300 mg/kg
Rattus norvegicus [24] = assay: The compound was tested peroral dose of 30 mg/kg for 0.5 hours for rotarod toxicity; 0/4; format: functional; conditions: route oral
Rattus norvegicus [25] = assay: The compound was tested peroral dose of 30 mg/kg for 0.25 hours for maximal electroshock test on rats; MES= 3/4; format: functional; conditions: route oral
Rattus norvegicus [26] = assay: The compound was tested peroral dose of 40 mg/kg for 0.5 hours for maximal electroshock test on rats; MES= 3/4; format: functional; conditions: route oral
Rattus norvegicus [27] = assay: The compound was tested peroral dose of 40 mg/kg for 0.25 hours for maximal electroshock test on rats; MES= 3/4; format: functional; conditions: route oral
Rattus norvegicus [28] = assay: The compound was tested peroral dose of 40 mg/kg for 4 hours for rotarod toxicity; 0/4; format: functional; conditions: route oral
Mus musculus [29] = assay: The compound was tested for anticonvulsant activity in Maximal electroshock seizure test (MES) for 4 hr in mice(ip); active at 300 mg/kg; format: functional, organism-based; design: dose 300 mg/kg
Rattus norvegicus [30] = assay: The compound was tested peroral dose of 40 mg/kg for 1 hour for rotarod toxicity; 0/4; format: functional; conditions: route oral
Rattus norvegicus [31] = assay: The compound was tested peroral dose of 40 mg/kg for 4 hours for maximal electroshock test on rats; MES= 0/4; format: functional; conditions: route oral
Rattus norvegicus [32] = assay: The compound was tested peroral dose of 40 mg/kg for 2 hours for rotarod toxicity; 0/4; format: functional; conditions: route oral
[33] = as §2; format: ADME; conditions: rat
[34] = as §1; format: ADME, organism-based; conditions: mouse, in vivo
Rattus norvegicus [35] = assay: The compound was tested peroral dose of 40 mg/kg for 0.25 hours for rotarod toxicity; 0/4; format: functional; conditions: route oral
Rattus norvegicus [36] = assay: The compound was tested peroral dose of 40 mg/kg for 2 hours for maximal electroshock test on rats; MES= 1/4; format: functional; conditions: route oral
Rattus norvegicus [37] = assay: The compound was tested for the effective oral dose to inhibit 50% of the anticonvulsant in rats; format: functional
Rattus norvegicus [38] = assay: The compound was tested peroral dose of 40 mg/kg for 0.5 hours for rotarod toxicity; 0/4; format: functional; conditions: route oral
Rattus norvegicus [39] = assay: The compound was tested peroral dose of 40 mg/kg for 1 hour for maximal electroshock test on rats; MES= 1/4; format: functional; conditions: route oral

In the case of `CCCc1ccc2c(c1)sc(=O)n2CCN1CCCCC1`, the Protected/Tested (Rattus norvegicus [1]) is reported as 1, the “No. of animals exhibiting toxicity / Number of animals tested” value (Rattus norvegicus [2]) is reported as 0 and the ED50 (Mus musculus [3]) is reported as > 75 mg/kg. For the same compound, the TD50 (Mus musculus [4]) was 29.4 mg/kg, the scMet (Mus musculus [5]) was “No activity or no toxicity at 300 mg/kg” and the Ratio [6] was 29. The TD50 (Rattus norvegicus [7]) was < 500 mg/kg, the “No. of animals exhibiting toxicity / Number of animals tested” value (Rattus norvegicus [8]) was 0 and the MES (Mus musculus [9]) was “active at 30 mg/kg”. It also gave a PI (Rattus norvegicus [10]) of 26.9, a Protected/Tested (Rattus norvegicus [11]) of 1 and a Ki (Sigma 2 receptor) of 18.1 nM. The Rotarod toxicity [12] was “active at 300 mg/kg”, the scMet (Mus musculus [13]) was “No activity or no toxicity at 300 mg/kg” and the Protected/Tested (Rattus norvegicus [14]) was 3. The “No. of animals exhibiting toxicity / Number of animals tested” value (Rattus norvegicus [15]) was 0, the “No. of animals exhibiting toxicity / Number of animals tested” value (Rattus norvegicus [16]) was 0 and the Rotarod toxicity [17] was “active at 300 mg/kg”. For the same compound, the ED50 (Mus musculus [18]) was 7.6 mg/kg, the ED50 (Rattus norvegicus [19]) was 18.6 mg/kg and the Protected/Tested (Rattus norvegicus [20]) was 0. The Toxicity [21] was 0.25 h, the Activity (Mus musculus [22]) was 0.25 h and the MES (Mus musculus [23]) was “active at 30 mg/kg”. The “No. of animals exhibiting toxicity / Number of animals tested” value (Rattus norvegicus [24]) was 0 and the Protected/Tested (Rattus norvegicus [25]) was 3.
With `CCC(=O)c1ccc2c(c1)sc(=O)n2CCN1CCCCC1` the Protected/Tested (Rattus norvegicus [26]) was 3, the Protected/Tested (Rattus norvegicus [27]) was 3 and the ED50 (Mus musculus [3]) was > 55 mg/kg. For the same compound, the “No. of animals exhibiting toxicity / Number of animals tested” value (Rattus norvegicus [28]) was 0, the scMet (Mus musculus [5]) was “No activity or no toxicity at 300 mg/kg” and the MES (Mus musculus [29]) was “active at 30 mg/kg”. For the same compound, the “No. of animals exhibiting toxicity / Number of animals tested” value (Rattus norvegicus [30]) was 0, the Protected/Tested (Rattus norvegicus [31]) was 0 and the “No. of animals exhibiting toxicity / Number of animals tested” value (Rattus norvegicus [32]) was 0. The TD50 [33] was > 110 mg/kg, the Ratio [6] was 10 and the TD50 [34] was 46.3 mg/kg. For the same compound, the MES (Mus musculus [9]) was “active at 30 mg/kg”, the “No. of animals exhibiting toxicity / Number of animals tested” value (Rattus norvegicus [35]) was 0 and the PI (Rattus norvegicus [10]) was 4. For the same compound, the Protected/Tested (Rattus norvegicus [36]) was 1, the Ki (Sigma 2 receptor) was 481 nM and the Rotarod toxicity [12] was “active at 300 mg/kg”. For the same compound, the scMet (Mus musculus [13]) was “No activity or no toxicity at 300 mg/kg”, the ED50 (Rattus norvegicus [37]) was 27.2 mg/kg and the “No. of animals exhibiting toxicity / Number of animals tested” value (Rattus norvegicus [38]) was 0. The Rotarod toxicity [17] was “active at 300 mg/kg”, the ED50 (Mus musculus [18]) was 8.7 mg/kg and the Toxicity [21] was 0.25 h. It also gave an Activity (Mus musculus [22]) of 0.25 h and a Protected/Tested (Rattus norvegicus [39]) of 1.
